Experiments:
[1] = biological target: HIV reverse transcriptase (Human immunodeficiency virus type 1 group M subtype B, UniProt P04585); assay: Inhibition of reverse transcriptase activity, Enzchek Reverse Transcriptase assay kit; format: biochemical; conditions: positive controls, FIG. 3
[2] = system: human immunodeficiency virus (HIV); assay: Antiviral activity in HIV-infected (Nef substituted with EGFP) MT-4 cells: GFP fluorescence, HIV-1 p24 Antigen Capture Assay; format: cell-based; conditions: 1 nM, 3 days
Description: Thereafter, the cultured cells were centrifuged at 6,000 rpm for 3 minutes to obtain a cell pallet. Then, fluorescence intensity of a green fluorescence protein (GFP) secreted from the obtained cells was measured, a level of viral infection was confirmed using an HIV-1 p24 Antigen Capture Assay kit (Advanced BioScience Laboratories), and cell viability was determined using an MTT assay. 0.5% DMSO and 1 nM 3′-azido-3′-deoxy-thyminine (AZT) were used as the negative and positive controls, respectively.

Compound	inhibition of reverse transcriptase activities (in words) [1]	antiviral activity [2] [%]
Cc1cn([C@H]2C[C@H](N=[N+]=[N-])[C@@H](CO[P@](=O)(O)O[P@](=O)(O)OP(=O)(O)O)O2)c(=O)[nH]c1=O [AZTTP]	increasingly expressed according to a concentration	–
Cc1cn([C@H]2C[C@H](N=[N+]=[N-])[C@@H](CO)O2)c(=O)[nH]c1=O [AZT, 3′-azido-3′-deoxy-thyminine]	not inhibited	49.8
Cc1cc(C#N)cc(C)c1Oc1nc(Nc2ccc(C#N)cc2)nc(N)c1Br [Etravirine]	increasingly expressed according to a concentration	–

— US9084758B2, “Antiviral compositions comprising ethanol extract of Tetracera scandens and use thereof” (The Catholic University of Korea Industry-Academic …, priority 2012, dated 2015)
